From ChEMBL document CHEMBL1201862, “PubChem BioAssay data set” (2004)
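Cultured in 96-well plates, cells were exposed to test compound for 48 hours across five concentrations. Abbreviation: GI50, concentration required for 50% inhibition of growth.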 Calls of active or inactive are those of the source. Cut-off read from the data, not from the text of the source: active = GI50 up to about 1.1 µM and inactive = higher.

Experiments:
Assay in all cases: NCI-60 cell line screen, 48 h
OVCAR-5 = system: OVCAR-5
OVCAR-4 = system: OVCAR-4
IGROV-1 = system: IGROV-1
NCI-H522 = system: NCI-H522
T47D = system: T47D
TK-10 = system: TK-10
NCI-H460 = system: NCI-H460
786-0 = system: 786-0
MCF7 = system: MCF7
SW-620 = system: SW-620
UO-31 = system: UO-31
HOP-62 = system: HOP-62
RXF 393 = system: RXF 393
MDA-N = system: MDA-N
MDA-MB-231 = system: MDA-MB-231
MDA-MB-435 = system: MDA-MB-435
NCI-H226 = system: NCI-H226
HOP-92 = system: HOP-92
HCT-15 = system: HCT-15
SN12C = system: SN12C
A498 = system: A498
SK-OV-3 = system: SK-OV-3
SNB-19 = system: SNB-19
BT-549 = system: BT-549
MOLT-4 = system: MOLT-4
EKVX = system: EKVX
SF-268 = system: SF-268
CCRF-CEM = system: CCRF-CEM
SK-MEL-28 = system: SK-MEL-28
HT-29 = system: HT-29
OVCAR-3 = system: OVCAR-3
M14 = system: M14
SF-539 = system: SF-539
Hs-578T = system: Hs-578T
DU-145 = system: DU-145
COLO 205 = system: COLO 205
Malme-3M = system: Malme-3M
UACC-257 = system: UACC-257
ACHN = system: ACHN
UACC-62 = system: UACC-62
PC-3 = system: PC-3
U-251 = system: U-251
NCI/ADR-RES = system: NCI/ADR-RES
LOX IMVI = system: LOX IMVI
RPMI-8226 = system: RPMI-8226
SK-MEL-2 = system: SK-MEL-2
HCT-116 = system: HCT-116
HL-60 = system: HL-60
KM12 = system: KM12
OVCAR-8 = system: OVCAR-8
A549 = system: A549
SK-MEL-5 = system: SK-MEL-5
CAKI-1 = system: CAKI-1
SR = system: SR
K562 = system: K562
SNB-75 = system: SNB-75
SF-295 = system: SF-295
NCI-H23 = system: NCI-H23

## COC(=O)C1C(OS(=O)(=O)O)CCC2CN3CCc4c([nH]c5ccccc45)C3CC21 (stereo not given)
OVCAR-5
  GI50: > 100 µM (inactive)
OVCAR-4
  GI50: > 100 µM (inactive)
IGROV-1
  GI50: > 100 µM (inactive)
NCI-H522
  GI50: > 100 µM (inactive)
T47D
  GI50: > 100 µM (inactive)
TK-10
  GI50: > 100 µM (inactive)
NCI-H460
  GI50: > 100 µM (inactive)
786-0
  GI50: > 100 µM (inactive)
MCF7
  GI50: > 100 µM (inactive)
SW-620
  GI50: > 100 µM (inactive)
UO-31
  GI50: > 100 µM (inactive)
HOP-62
  GI50: > 100 µM (inactive)
RXF 393
  GI50: > 100 µM (inactive)
MDA-N
  GI50: > 100 µM (inactive)
MDA-MB-231
  GI50: > 100 µM (inactive)
MDA-MB-435
  GI50: > 100 µM (inactive)
NCI-H226
  GI50: > 100 µM (inactive)
HOP-92
  GI50: > 100 µM (inactive)
HCT-15
  GI50: > 100 µM
SN12C
  GI50: > 100 µM (inactive)
A498
  GI50: > 100 µM (inactive)
SK-OV-3
  GI50: > 100 µM (inactive)
SNB-19
  GI50: > 100 µM (inactive)
BT-549
  GI50: > 100 µM (inactive)
MOLT-4
  GI50: > 100 µM (inactive)
EKVX
  GI50: > 100 µM (inactive)
SF-268
  GI50: > 100 µM (inactive)
CCRF-CEM
  GI50: > 100 µM (inactive)
SK-MEL-28
  GI50: > 100 µM (inactive)
HT-29
  GI50: > 100 µM (inactive)
OVCAR-3
  GI50: > 100 µM (inactive)
M14
  GI50: > 100 µM (inactive)
SF-539
  GI50: > 100 µM (inactive)
Hs-578T
  GI50: > 100 µM (inactive)
DU-145
  GI50: > 100 µM (inactive)
COLO 205
  GI50: > 100 µM (inactive)
Malme-3M
  GI50: > 100 µM (inactive)
UACC-257
  GI50: > 100 µM (inactive)
ACHN
  GI50: > 100 µM (inactive)
UACC-62
  GI50: > 100 µM (inactive)
PC-3
  GI50: > 100 µM (inactive)
U-251
  GI50: > 100 µM (inactive)
NCI/ADR-RES
  GI50: > 100 µM (inactive)
LOX IMVI
  GI50: > 100 µM (inactive)
RPMI-8226
  GI50: > 100 µM (inactive)
SK-MEL-2
  GI50: > 100 µM (inactive)
HCT-116
  GI50: > 100 µM (inactive)
HL-60
  GI50: > 100 µM (inactive)
KM12
  GI50: > 100 µM (inactive)
OVCAR-8
  GI50: > 100 µM (inactive)
A549
  GI50: > 100 µM (inactive)
SK-MEL-5
  GI50: > 100 µM (inactive)
CAKI-1
  GI50: > 100 µM (inactive)
SR
  GI50: > 100 µM (inactive)
K562
  GI50: > 100 µM (inactive)
SNB-75
  GI50: > 100 µM (inactive)
SF-295
  GI50: > 100 µM (inactive)
NCI-H23
  GI50: > 100 µM (inactive)

## CC1CN(CCO)CCN1c1ccccc1 (stereo not given)
OVCAR-5
  GI50: > 100 µM (inactive)
OVCAR-4
  GI50: > 100 µM (inactive)
IGROV-1
  GI50: > 100 µM (inactive)
NCI-H522
  GI50: > 100 µM (inactive)
T47D
  GI50: > 100 µM (inactive)
TK-10
  GI50: > 100 µM (inactive)
NCI-H460
  GI50: > 100 µM (inactive)
786-0
  GI50: > 100 µM (inactive)
MCF7
  GI50: > 100 µM (inactive)
SW-620
  GI50: > 100 µM (inactive)
UO-31
  GI50: > 100 µM (inactive)
HOP-62
  GI50: > 100 µM (inactive)
RXF 393
  GI50: > 100 µM (inactive)
MDA-N
  GI50: > 100 µM (inactive)
MDA-MB-231
  GI50: > 100 µM (inactive)
MDA-MB-435
  GI50: > 100 µM (inactive)
NCI-H226
  GI50: > 100 µM (inactive)
HOP-92
  GI50: > 100 µM (inactive)
HCT-15
  GI50: > 100 µM
SN12C
  GI50: > 100 µM (inactive)
A498
  GI50: > 100 µM (inactive)
SK-OV-3
  GI50: > 100 µM (inactive)
SNB-19
  GI50: > 100 µM (inactive)
BT-549
  GI50: > 100 µM (inactive)
MOLT-4
  GI50: 1.41 µM (inactive)
EKVX
  GI50: > 100 µM (inactive)
SF-268
  GI50: > 100 µM (inactive)
SK-MEL-28
  GI50: > 100 µM (inactive)
HT-29
  GI50: > 100 µM (inactive)
OVCAR-3
  GI50: > 100 µM (inactive)
M14
  GI50: > 100 µM (inactive)
SF-539
  GI50: > 100 µM (inactive)
Hs-578T
  GI50: > 100 µM (inactive)
DU-145
  GI50: > 100 µM (inactive)
COLO 205
  GI50: > 100 µM (inactive)
Malme-3M
  GI50: > 100 µM (inactive)
UACC-257
  GI50: > 100 µM (inactive)
ACHN
  GI50: > 100 µM (inactive)
UACC-62
  GI50: > 100 µM (inactive)
PC-3
  GI50: > 100 µM (inactive)
U-251
  GI50: > 100 µM (inactive)
NCI/ADR-RES
  GI50: > 100 µM (inactive)
LOX IMVI
  GI50: > 100 µM (inactive)
RPMI-8226
  GI50: > 100 µM (inactive)
SK-MEL-2
  GI50: > 100 µM (inactive)
HCT-116
  GI50: > 100 µM (inactive)
HL-60
  GI50: 42 µM (inactive)
KM12
  GI50: > 100 µM (inactive)
OVCAR-8
  GI50: > 100 µM (inactive)
A549
  GI50: > 100 µM (inactive)
SK-MEL-5
  GI50: > 100 µM (inactive)
CAKI-1
  GI50: > 100 µM (inactive)
SR
  GI50: > 100 µM (inactive)
K562
  GI50: > 100 µM (inactive)
SNB-75
  GI50: > 100 µM (inactive)
SF-295
  GI50: > 100 µM (inactive)
NCI-H23
  GI50: > 100 µM (inactive)
